Activity calls are given as the source filed them. No cut-off for these calls is given here.

Assay [1] concerns DV-90. Put plainly: Induction of apoptosis in human DV-90 cells assessed as early apoptotic cells at 2.5 uM for 24 hrs by annexin V-PI staining based flow cytometric analysis (reference value: 1.7%). Type of assay: functional. On the technique in general: In flow cytometry, cells or beads pass a laser one at a time.
Assay [2] has as its system NCI-H441. Put plainly: Downregulation of XIAP protein expression level in human NCI-H441 cells at 1 uM for 24 hrs by […] analysis. Type of assay: functional, cell-based. (Real-time PCR tracks product formation cycle by cycle.)
The test system of assay [3] is NCI-H1373. The assay is described as follows: Induction of TRAIL dependent apoptosis in human NCI-H1373 cells assessed as viable cells at 1 uM by annexin V-PI staining based flow cytometric analysis (reference value: 87.6%). Type of assay: functional. The following applies: read-out: Activity.
For a further assay, the system named is NCI-H358. The assay is described as follows: Downregulation of XIAP mRNA expression level in human NCI-H358 cells at 0.1 to 1 uM for 24 hrs by qRT-PCR analysis. Type of assay: functional, cell-based. The following applies: dose 0.1-1 µM.
For assay [4], the system named is NCI-H1373. Put plainly: Induction of apoptosis in human NCI-H1373 cells assessed as necrotic cells at 0.5 uM for 24 hrs by annexin V-PI staining based flow cytometric analysis (reference value: 5.5%). The assay is classed as functional.
Assay [5] has as its system NCI-H441. The assay is described as follows: Downregulation of FLIP mRNA expression level in human NCI-H441 cells at 0.1 to 1 uM for 24 hrs by qRT-PCR analysis. Type of assay: functional, cell-based. The following applies: dose 0.1-1 µM.
The subject of assay [6] is NCI-H1373. The assay is described as follows: Induction of cell cycle arrest in human NCI-H1373 cells assessed as accumulation of cells at G0/G1 phase at 0.1 uM for 24 hrs by Click-iT EdU Alexa Fluor 647 flow cytometric assay kit analysis (reference value: 40%). Type of assay: functional.
In assay [7] the test system is NCI-H1373. Put plainly: Induction of cell cycle arrest in human NCI-H1373 cells assessed as accumulation of cells at S phase at 0.1 uM for 24 hrs by Click-iT EdU Alexa Fluor 647 flow cytometric assay kit analysis (reference value: 45%). The assay is classed as functional.
Assay [8] relates to NCI-H1373. The assay is described as follows: Induction of cell cycle arrest in human NCI-H1373 cells assessed as accumulation of cells at G0/G1 phase at 0.25 uM for 24 hrs by Click-iT EdU Alexa Fluor 647 flow cytometric assay kit analysis (reference value: 40%). The assay is classed as functional.
A further assay has as its system LCLC-97TM1. The assay is described as follows: Downregulation of c-MYC protein expression level in human LCLC-97TM1 cells at 1 uM for 24 hrs by […] analysis. Type of assay: functional, cell-based.
Assay [9] relates to A549. Put plainly: Induction of apoptosis in human A549 cells assessed as viable cells at 1 uM by annexin V-PI based flow cytometric analysis (reference value: 95.7%). The assay is classed as functional. The following applies: read-out: Activity.
The subject of assay [10] is NCI-H1373. Put plainly: Downregulation of c-MYC protein level in human NCI-H1373 cells 1 uM by Western blot analysis. The assay is classed as functional, cell-based. The following applies: time <= 24.0 hrs, TDE = time-dependent effect. (In general: In western blotting, separated proteins are transferred to a membrane and probed.)
The subject of assay [11] is NCI-H1373. The assay is described as follows: Induction of apoptosis in human NCI-H1373 cells assessed as viable cells at 2.5 uM for 24 hrs by annexin V-PI staining based flow cytometric analysis (reference value: 77.7%). The following applies: read-out: Activity. Type of assay: functional.
Assay [12] deals with DV-90. The assay is described as follows: Induction of cell cycle arrest in human DV-90 cells assessed as accumulation of cells at G2/M phase at 0.5 uM for 24 hrs by Click-iT EdU Alexa Fluor 647 flow cytometric assay kit analysis (reference value: 24%). Type of assay: functional.
Assay [13] deals with NCI-H2347. The assay is described as follows: Downregulation of XIAP mRNA expression level in human NCI-H2347 cells at 0.1 to 1 uM for 24 hrs by qRT-PCR analysis. The assay is classed as functional, cell-based. The following applies: dose 0.1-1 µM.
In the next assay the test system is NCI-H1792. Put plainly: Downregulation of c-MYC mRNA expression level in human NCI-H1792 cells at 0.1 to 1 uM for 24 hrs by qRT-PCR analysis. The following applies: dose 0.1-1 µM. The assay is classed as functional, cell-based.
The subject of assay [14] is NCI-H460. The assay is described as follows: Induction of apoptosis in human NCI-H460 cells assessed as necrotic cells at 2.5 uM for 24 hrs by annexin V-PI staining based flow cytometric analysis (reference value: 2.7%). The assay is classed as functional.
Assay [15] deals with A549. The assay is described as follows: Induction of cell cycle arrest in human A549 cells assessed as accumulation of cells at G0/G1 phase at 0.25 uM for 24 hrs by Click-iT EdU Alexa Fluor 647 flow cytometric assay kit analysis (reference value: 61%). The assay is classed as functional.
The test system of assay [16] is DV-90. The assay is described as follows: Induction of cell cycle arrest in human DV-90 cells assessed as accumulation of cells at G2/M phase at 0.1 uM for 24 hrs by Click-iT EdU Alexa Fluor 647 flow cytometric assay kit analysis (reference value: 24%). The assay is classed as functional.
Assay [17] relates to DV-90. Put plainly: Downregulation of C-MYC mRNA expression level in human DV-90 cells at 0.1 to 1 uM for 24 hrs by qRT-PCR analysis. Type of assay: functional, cell-based. The following applies: dose 0.1-1 µM.
The subject of assay [18] is A549. Put plainly: Induction of cell cycle arrest in human A549 cells assessed as accumulation of cells at G0/G1 phase at 0.5 uM for 24 hrs by Click-iT EdU Alexa Fluor 647 flow cytometric assay kit analysis (reference value: 61%). Type of assay: functional.
Assay [19] deals with A549. Put plainly: Induction of cell cycle arrest in human A549 cells assessed as accumulation of cells at S phase at 1 uM for 24 hrs by Click-iT EdU Alexa Fluor 647 flow cytometric assay kit analysis (reference value: 35%). Type of assay: functional.
Assay [20] has as its system A549. Put plainly: Induction of apoptosis in human A549 cells assessed as early apoptotic cells at 2.5 uM for 24 hrs by annexin V-PI staining based flow cytometric analysis (reference value: 0.4%). Type of assay: functional.
Assay [21] relates to NCI-H460. Put plainly: Induction of apoptosis in human NCI-H460 cells assessed as necrotic cells at 0.5 uM for 24 hrs by annexin V-PI staining based flow cytometric analysis (reference value: 2.7%). Type of assay: functional.
Assay [22] deals with NCI-H2347. Put plainly: Downregulation of c-MYC mRNA expression level in human NCI-H2347 cells at 0.1 to 1 uM for 24 hrs by qRT-PCR analysis. The following applies: dose 0.1-1 µM. The assay is classed as functional, cell-based.
Another assay concerns SK-LU-1. Put plainly: Downregulation of XIAP mRNA expression level in human SK-LU-1 cells at 0.1 to 1 uM for 24 hrs by qRT-PCR analysis. The assay is classed as functional, cell-based. The following applies: dose 0.1-1 µM.
The test system of assay [23] is NCI-H1373. The assay is described as follows: Induction of apoptosis in human NCI-H1373 cells assessed as late apoptotic cells at 0.5 uM for 24 hrs by annexin V-PI staining based flow cytometric analysis (reference value: 22.3%). Type of assay: functional.
Assay [24] deals with DV-90. The assay is described as follows: Induction of apoptosis in human DV-90 cells assessed as late apoptotic cells at 2.5 uM for 24 hrs by annexin V-PI staining based flow cytometric analysis (reference value: 8.7%). Type of assay: functional.
The subject of assay [25] is DV-90. Put plainly: Induction of apoptosis in human DV-90 cells assessed as necrotic cells at 2.5 uM for 24 hrs by annexin V-PI staining based flow cytometric analysis (reference value: 8.4%). The assay is classed as functional.
For assay [26], the system named is NCI-H460. Put plainly: Induction of apoptosis in human NCI-H460 cells assessed as early apoptotic cells at 2.5 uM for 24 hrs by annexin V-PI staining based flow cytometric analysis (reference value: 0.3%). Type of assay: functional.
The test system of assay [27] is NCI-H460. Put plainly: Induction of apoptosis in human NCI-H460 cells assessed as late apoptotic cells at 2.5 uM for 24 hrs by annexin V-PI staining based flow cytometric analysis (reference value: 3.7%). The assay is classed as functional.
Assay [28] concerns NCI-H1373. The assay is described as follows: Induction of cell cycle arrest in human NCI-H1373 cells assessed as accumulation of cells at G0/G1 phase at 0.25 uM for 24 hrs by Click-iT EdU Alexa Fluor 647 flow cytometric assay kit analysis (reference value: 45%). Type of assay: functional.
For assay [29], the system named is DV-90. The assay is described as follows: Induction of cell cycle arrest in human DV-90 cells assessed as accumulation of cells at G0/G1 phase at 1 uM for 24 hrs by Click-iT EdU Alexa Fluor 647 flow cytometric assay kit analysis (reference value: 45%). The assay is classed as functional.

As for `Cc1sc2c(c1C)C(c1ccc(Cl)cc1)=N[C@@H](CC(=O)OC(C)(C)C)c1nnc(C)n1-2`, the Activity was 1.9% in the assay on DV-90 [1]; 13% with NCI-H1373 [4]; 44% with NCI-H1373 [6]; 36% with NCI-H1373 [7]; 60% with NCI-H1373 [8]; “Tde” in the assay on NCI-H1373 [10]. The Activity is 30% in the assay with DV-90 [12]; 3.7% in the assay with NCI-H460 [14]; 63% in the assay with A549 [15]; 31% in the assay on DV-90 [16]; 63% in the assay with A549 [18]; 32% in the assay on A549 [19]. In addition, the Activity came out at 0.2% in the assay with A549 [20] and 4% in the assay on NCI-H460 [21]. Further, the result in the assay with NCI-H441 [2], in the assay with NCI-H358, with NCI-H441 [5], in the assay on LCLC-97TM1, in the assay with NCI-H2347 [13] and with NCI-H1792 was Active. In addition, the outcome in the assay on DV-90 [17], in the assay with NCI-H2347 [22] and in the assay with SK-LU-1 was Active. In addition, the viability at 1 µM came out at 64.4% in the assay with NCI-H1373 [3] and 98% in the assay on A549 [9]. Further, in the assay on NCI-H1373 [11], the viability at 2.5 µM amounted to 58%.

For `Cc1sc2c(c1C)C(c1ccc(Cl)cc1)=N[C@@H](CC(=O)Nc1ccc(O)cc1)c1nnc(C)n1-2` [BIRABRESIB], the Activity with NCI-H1373 [23] is given as 20.5%; in the assay on DV-90 [24], 13.5%; in the assay with DV-90 [25] it was 33.7%; in the assay on NCI-H460 [26] it was 0.6%; in the assay with NCI-H460 [27], 5.1%.

With `CCNC(=O)C[C@@H]1N=C(c2ccc(Cl)cc2)c2cc(OC)ccc2-n2c(C)nnc21` [MOLIBRESIB], the values for the Activity in the assay with NCI-H1373 [28] and with DV-90 [29] were 49% and 50%, respectively.

(Values after ChEMBL document CHEMBL5712891, “Inhibition of BET bromodomain-dependent XIAP and FLIP expression sensitizes KRAS-mutated NSCLC to pro-apoptotic agents” (Cell Death Dis, 2016).)
